Key:
[1] = tested on: developing zebrafish vasculature; assay: Zebrafish model of angiogenesis; type: in vivo; conditions: exposure from 5.25 hpf, analysis at 24 hpf; compound 1 at 0.25 μM
Experimental: Embryos (FLK1-GFP trangenic) were maintained in fish water until the 50% epiboly stage (5.25 hpf) and were transferred into wells of 24-well plate containing the inhibitors in fish water. The analysis for vascular defects was performed after the 24 hpf stage, and embryos were imaged using a fluorescence microscope.
Transgenic fish expressing EGFP in endothelial cells (Tg(flk1:EGFP)) were used to facilitate visualization of the developing vasculature. In control experiments embryos were treated with 0.1% DMSO (vehicle). At the time of analyses (24 hpf) developing vessels normally migrated from the lateral plate mesoderm to the midline and formed the vascular cord, subsequently forming the dorsal aorta and the posterior cardinal vein and followed by the formation of intersegmental vessels at designated branch points (FIG. 6b).

[2] = tested on: HUVECs; assay: HUVEC tubulogenesis on Matrigel; type: cell-based, human; conditions: for tube formation on Matrigel: HUVEC
Description: Primary endothelial cells (ECs) on basement membrane rapidly attach, align themselves and form capillary-like tubules with lumens and tight cell-cell contacts. […] To better understand the stage in matrigel tube-formation affected by compound 1g cells plated on growth-factor reduced matrigel and treated with either vehicle or compound 1g were followed. Differences become apparent within the first two hours and were clearly visible at the 6-hour time-point. The ECs are much less organized in the presence of compound 1g. […] The effect of compound 1g on tube formation was attenuated in the presence of high concentrations of fetal bovine serum (FBS), likely reflecting non-specific protein binding.
The EYA inhibitors were also tested in tubulogenesis assays. The tubulogenesis assays were performed in 15-well micro-slide (ibidi LLC, Verona Wis.), using growth factor-reduced matrigel (BD Bioscience, Billerica, Mass.). The matrix was prepared by loading 10 μl of matrigel in each micro-slide well and allowing it to solidify for 30 minutes at 37° C. HUVECs were trypsinized and resuspended at 100.000 cell/ml in EBM+2.5% FBS. 50 μl (5,000 cell) were loaded on top of the solidified matrigel and the preparation was incubated for 20 hours at 37° C. in a humidified incubator in a 5% CO2 atmosphere. Bright field images were taken using an inverted microscope at 2.5× magnification, which allowed imaging of the whole well in two pictures that were later merged in Photoshop. Tubular structures were traced and counted using NeuroJ (NIH, USA). In experiments with inhibitor, the inhibitor was added to the cell suspension before loading. Each sample was loaded in triplicate, and each treatment was repeated for reproducibility.

[3] = tested on: mouse aortic rings; assay: Aortic ring sprouting assay; type: cell-based
Experimental: Additionally, the effect of compounds 1d, 1f, 1h, 1i, 1g, 2 and 2a on cell proliferation, migration, tube formation, micro-vessel branching, and perivascular recruitment using an aortic ring sprouting assay. When slices of mouse aorta are cultured in collagen gels there is typically a lag phase for the first 4 days followed by linear sprouting of endothelial cells. By day 6, branching is observed. All the test compounds were initially assayed at 7.5 μM and the number of branch-points counted. When there was a severe effect (no visible sprouting), or when there was no apparent effect, other doses were tested to establish a dose-dependence. All of the compounds assayed were able to attenuate aortic ring sprouting. There was a strong reduction in initial sprouting and some attenuation of branching. With the exception of 2a, in all cases where there was sprouting, the length of sprouts was shorter than in the controls.
Endothelial cell migration can also be studied […] using the aortic ring assay in which sprouting angiogenesis is monitored by the formation of vascular sprouts outside the wall of mouse aortic rings incubated in collagen matrix and stimulated by VEGF (Gerhardt, H., et al. EXS, 3-15 (2005), hereby incorporated by reference in its entirety). Briefly, mice were obtained from the Cincinnati Children's veterinary service and handled according to the institutional animal care and use protocol. […] Mice were 4 to 6 weeks old female C57BL16, and aortic ring explants were cultured at 37° C. in a humidified incubator under a 5% CO2 atmosphere.
Each inhibitor was serially diluted (between 0.25 mM and 7.5 mM) to stocks of 1000× the working concentrations in sterile 100% DMSO in order to achieve an equal final concentration of DMSO (0.1% v/v) in all culture conditions. For the experiments, the compounds were diluted in EBM containing 2.5% FBS, penicillin/streptomycin and 20 ng/ml VEGF165 (R&D Systems, Minneapolis, Minn.). Each compound was applied from the first day of culture over a 10-day period with medium change every two days. In all experiments, the vehicle (DMSO, 0.1%) was used as control. The sprouting density was derived from counting the number of branches per ring, and the extent of angiogenic sprouting was estimated by measuring the total surface area covered by the vessels as illustrated in FIG. 7.

[4] = tested on: HUVECs; assay: HUVEC transwell migration; type: cell-based, human; conditions: 5 μM
Description: (§1) In order to determine whether EYA3 knock down would affect cell migration, a modified Boyden chamber assay was used to measure HUVEC migration. Briefly, human umbilical vein endothelial cells (HUVECs) were purchased from Lonza (Walkersville, Md.) and maintained in the endothelial cell growth medium (PromoCell, Hleidelberg, Germany), under a 5% CO2 atmosphere. MCF10A cells from ATCC were stably transfected with either pcDNA 3.2N5-DEST (vector control), V5-EYA2 or V5-EYA2(D250N). Transwell migration experiments were performed as previously described (Pandey, R. N. et al. Oncogene 29, 3715-3722, (2010)).

[5] = biological target: PTP1B (Homo sapiens (Human), UniProt P18031); assay: PTP1B-catalyzed pNPP hydrolysis; type: biochemical; conditions: pNPP substrate
PTP1B, sequence (P18031 whole entry, species assumed, the tested form may be a part): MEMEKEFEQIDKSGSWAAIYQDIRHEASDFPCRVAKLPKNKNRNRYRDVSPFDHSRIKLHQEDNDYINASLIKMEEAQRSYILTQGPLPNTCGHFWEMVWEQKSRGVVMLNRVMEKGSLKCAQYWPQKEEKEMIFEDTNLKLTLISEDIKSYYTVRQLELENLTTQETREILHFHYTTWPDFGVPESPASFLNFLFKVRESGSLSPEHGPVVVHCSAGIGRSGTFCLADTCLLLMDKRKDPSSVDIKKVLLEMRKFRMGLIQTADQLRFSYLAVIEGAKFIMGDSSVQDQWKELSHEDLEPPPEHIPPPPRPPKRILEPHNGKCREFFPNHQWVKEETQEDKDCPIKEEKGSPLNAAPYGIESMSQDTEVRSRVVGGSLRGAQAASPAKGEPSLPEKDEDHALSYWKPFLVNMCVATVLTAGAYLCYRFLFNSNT
Experimental: The catalytic domain of human Eya2 (“hEYA2(ED)”) was similarly sub-cloned as a polyhistidine fusion construct in the vector pDEST-527. Fusion protein was purified by NiNTA chromatography and followed by size-exclusion chromatography over a Superdex-75 column. The relative purity of protein samples was determined using SDS-PAGE. PTP1B was purified as described previously (Rayapureddi, J. P. et al. Nature 426, 295-298 (2003), incorporated by reference in its entirety).
An inhibitory assay was conducted using the previously described p-nitrophenylphosphate assay (Rayapureddi, J. P. et al. Nature 426, 295-298 (2003)). Briefly, ED was incubated in a reaction mixture containing 20 mM MES pH 6, 2 mM MgCl2, 125 μM inhibitor, 3.4 mM para-nitrophenol phosphate (pNPP) and 0.01 μg/μL enzyme.
PTP1B is a classical Cys-based tyrosine phosphatase.

[6] = tested on: HUVECs; assay: HUVEC proliferation (MTT); type: cell-based, human; conditions: 5 μM, 24 hours
[7] = tested on: retinal vasculature; assay: Mouse model of oxygen-induced retinopathy; type: in vivo, mice; conditions: 100 or 50 pmoles injected at P12, analyzed at P16
Description: The mouse model of oxygen-induced retinopathy mimics the retinopathy characteristic of proliferative retiopathy conditions such as retinopathy of prematurity and diabetic retinopathy. […] The resulting retinal hypoxia after day 12, when pups were brought back to 20% O2, induced excessive hypoxia-driven angiogenesis. A characteristic large avascular area at the center of the retina and excessive regrowth of superficial vessels (pre-retinal neovascular tufts) in the mid-peripheral region was observed. […] In contrast, inhibition of either Vegf or Vegfr2 in OIR experiments suppresses both neovascular tuft formation and revascularization.

[8] = tested on: MCF10A(EYA2) cells; assay: Transwell migration of MCF10A-EYA2 cells; type: cell-based; conditions: 7.5 μM
Description: The tyrosine phosphatase activity of Eya3 and Eya2 promotes single cell motility in breast cancer cells (Pandey, R. N. et al. Oncogene (2010) 29:3715-3722, incorporated by reference in its entirety). EYA2 is over-expressed in breast cancers and is associated with increased metastasis and a poorer outcome (Farabaugh, et al. Oncogene (2011) 259). […] Overexpression of EYA2, but not the tyrosine-phosphatase dead mutant, promoted cell motility (FIG. 2a). […] This effect was dose-dependent (FIG. 2d) and compound (1a) was able to reduce cell motility by over 50% at the lowest concentration (1 μM) tested.
as §1

[9] = biological target: EYA3 (Homo sapiens (Human), UniProt Q99504); assay: pNPP assay, full-length human recombinant EYA3; type: biochemical; conditions: pNPP substrate, full-length EYA3
EYA3, sequence (Q99504 127-573): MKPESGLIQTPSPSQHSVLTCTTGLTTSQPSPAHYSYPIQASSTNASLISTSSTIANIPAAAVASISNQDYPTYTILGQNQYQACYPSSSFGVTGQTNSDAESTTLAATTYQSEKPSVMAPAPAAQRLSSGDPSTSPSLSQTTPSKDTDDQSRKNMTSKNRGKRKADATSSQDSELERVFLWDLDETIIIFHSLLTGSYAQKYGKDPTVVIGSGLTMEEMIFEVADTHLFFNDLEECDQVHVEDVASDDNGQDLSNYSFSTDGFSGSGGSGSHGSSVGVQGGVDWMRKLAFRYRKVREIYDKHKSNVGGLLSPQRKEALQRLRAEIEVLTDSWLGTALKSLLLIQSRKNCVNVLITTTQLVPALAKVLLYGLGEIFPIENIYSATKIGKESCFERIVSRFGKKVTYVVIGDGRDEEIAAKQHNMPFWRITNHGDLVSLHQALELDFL
Description: The catalytic domain of mouse Eya3 (“ED”, comprising residues 223-510 of Eya3) was purified as described by Rayapureddi, J. P. et al. (FEBS Lett 580, 3853-3859 (2006), incorporated by reference in its entirety). For full-length Eya3 (“hEYA3”), human Eya3 isoform 2 (representing the major species identified in human cell lines by mass spectrometry, expressed as residues 127-573 of NM_001990, isoform 1) was sub-cloned into pDEST565 to express a poly-histidine-Glutathione-S-transferase (His-GST) tagged fusion protein with a TVMV protease site. The protein was purified by glutathione-S-transferase affinity chromatography followed by TVMV cleavage, Ni-NTA chromatography, and finally size exclusion chromatography. […]
The compounds were then tested using full-length human recombinant, purified EYA3 and pNPP as a substrate. Compounds were dissolved in DMSO and diluted as needed. […] Reactions were incubated at 30° C. for 30 minutes and quenched with 100 mM EDTA pH 10. IC50 values were then calculated directly from regression curves using PRISM software. All reported values are the mean of two independent experiments.

[10] = tested on: HUVECs; assay: HUVEC cell viability assay (WST-8); type: cell-based, human; conditions: 3 days of exposure
Experimental: Additionally, a cell viability assay was conducted over 3 days of exposure to test compounds 1, 1a and 1g in order to assess both the possibility of immediate cellular toxicity as well as any effect on cell proliferation. HUVECs were seeded and equilibrated for 24 hours before addition of the test compounds. Cellular metabolic activity was measured at defined time-points using the tetrazolium dye WST-8 to quantify NAD(P)H-dependent cellular oxidoreductase enzyme activity.

[11] = tested on: HUVEC cells; assay: Scratch wound healing assay, HUVEC; type: cell-based, human; conditions: counted 22 hours later
Experimental: Cells were plated and grown to confluency. Scratch wounds were made using a sterile pipette tip, the medium changed to remove any cellular debris, and fresh medium with either vehicle or test compound was introduced. The number of cells that migrated into the cleared space was counted 22 hours later.

Structure (SMILES)	IC50 [9]	tube formation on Matrigel [2]	further results
CCCCc1oc2ccccc2c1C(=O)c1ccc(O)cc1 [Compound 1b]	–	–	intersegmental vessels in zebrafish embryos [1]: reduced the number of intersegmental vessels, but were less potent; tubulogenesis inhibition ([2]; 7.5 μM): effective at the highest concentrations tested; sprout length and microvascular density of aortic rings ([3]; 5 μM, 10 days): shorter sprouts and significantly lower microvascular density; HUVEC cell motility [4]: attenuated HUVEC cell motility; IC50 [5]: 71.4 µM; HUVEC cell proliferation [6]: no effect on cell proliferation; formation of neovascular tufts [7]: Significant reduction in the formation of neovascular tufts; cell migration [8]: significantly inhibited cell migration
CCc1oc2ccccc2c1C(=O)c1cc(I)c(O)c(I)c1 [Compound 1c]	3.4 µM	–	–
Cc1oc2ccccc2c1C(=O)c1cc(I)c(O)c(I)c1 [Compound 1d]	8.3 µM	did not show significant attenuation of tube formation	–
CC(O)Cc1oc2ccccc2c1C(=O)c1cc(I)c(O)c(I)c1 (centres unmarked) [Compound 1e]	13.8 µM	–	–
Cc1oc2ccccc2c1C(=O)c1ccc(O)c(I)c1 [Compound 1f]	17.5 µM	did not show significant attenuation of tube formation	–
CCc1oc2cc(O)ccc2c1C(=O)c1cc(Br)c(O)c(Br)c1 [Compound 1g]	27.2 µM	much stronger inhibitory effect than compound 1a	reduction in cell proliferation [10]: over 50%; reduction of cell migration [11]: ~80%; aortic ring sprouting ([3]; initially assayed at 7.5 μM): most potent inhibitor
CCc1oc2ccc(O)cc2c1C(=O)c1cc(Br)c(O)c(Br)c1 [Compound 1h]	40.8 µM	did not show significant attenuation of tube formation	–
CC(O)c1oc2ccccc2c1C(=O)c1cc(Br)c(O)c(Br)c1 (centres unmarked) [Compound 1i]	41.9 µM	–	–
CCc1oc2ccc(O)cc2c1C(=O)c1ccc(O)cc1 [Compound 1j]	73.1 µM	–	–
Cc1oc2ccccc2c1C(=O)c1ccc(O)cc1 [Compound 1k]	81.1 µM	–	–
CCCCc1oc2ccccc2c1C(=O)c1cc(I)c(O)c(I)c1 [Compound 2]	–	did not show significant attenuation of tube formation	–
CC(O)CCc1oc2ccccc2c1C(=O)c1cc(I)c(O)c(I)c1 (centres unmarked) [Compound 2a]	–	did not show significant attenuation of tube formation	–
